Laboratory results published in publication PMC12669040, “Tumour-specific STING agonist synthesis via a two-component prodrug system” (Nature Chemistry, 2025).
Several values for one entry are separate records, joined by “and”; a condition that tells them apart may be missing. Equal entries are not always repeated.

Experiments:
[1] = Colorimetric alkylation rate constant assay with TNB^2− as non-specific thiol; assay type: physicochemical; parameters: second-order: unit not given here; settings: for remaining [B]: in µM
[2] = Colorimetric alkylation rate constant assay with thiol N1; assay type: physicochemical; settings: for remaining [A]: N1 from calibration curve (N1 in uM); for remaining [A] / remaining [B]: in µM
[3] = Time 2891 sec, [B]0 = 250, Replicates 1-3
[4] = Time 3071 sec, [B]0 = 250, Replicates 1-3
[5] = Time 3252 sec, [B]0 = 250, Replicates 1-3
[6] = Time 3433 sec, [B]0 = 250, Replicates 1-3
[7] = Time 3613 sec, [B]0 = 250, Replicates 1-3

- remaining [B] ([1]; Replicate 1, 723 sec, [B]0 = 250): 243.335
- remaining [B] ([1]; Replicate 1, 903 sec, [B]0 = 250): 243.032
- remaining [B] ([1]; Replicate 1, 1084 sec, [B]0 = 250): 242.818
- remaining [B] ([1]; Replicate 1, 1265 sec, [B]0 = 250): 242.415
- remaining [B] ([1]; Replicate 1, 1445 sec, [B]0 = 250): 242.176
- remaining [B] ([1]; Replicate 1, 1626 sec, [B]0 = 250): 241.949
- remaining [B] ([1]; Replicate 1, 1806 sec, [B]0 = 250): 241.659
- remaining [B] ([1]; Replicate 1, 1988 sec, [B]0 = 250): 241.394
- remaining [B] ([1]; Replicate 1, 2168 sec, [B]0 = 250): 241.004
- remaining [B] ([1]; Replicate 1, 2349 sec, [B]0 = 250): 240.752
- remaining [B] ([1]; Replicate 1, 2530 sec, [B]0 = 250): 240.437
- remaining [B] ([1]; Replicate 1, 2710 sec, [B]0 = 250): 240.323
- remaining [B] ([1]; Replicate 2, 542 sec, [B]0=250): 243.63
- remaining [B] ([1]; Replicate 2, 723 sec, [B]0=250): 243.24
- remaining [B] ([1]; Replicate 2, 903 sec, [B]0=250): 242.962
- remaining [B] ([1]; Replicate 2, 1084 sec, [B]0=250): 242.698
- remaining [B] ([1]; Replicate 2, 1265 sec, [B]0=250): 242.446
- remaining [B] ([1]; Replicate 2, 1445 sec, [B]0=250): 242.169
- remaining [B] ([1]; Replicate 2, 1626 sec, [B]0=250): 241.929
- remaining [B] ([1]; Replicate 2, 1806 sec, [B]0=250): 241.639
- remaining [B] ([1]; Replicate 2, 1988 sec, [B]0=250): 241.4
- remaining [B] ([1]; Replicate 2, 2168 sec, [B]0=250): 241.098
- remaining [B] ([1]; Replicate 2, 2349 sec, [B]0=250): 240.858
- remaining [B] ([1]; Replicate 2, 2530 sec, [B]0=250): 240.593
- remaining [B] ([1]; Replicate 2, 2710 sec, [B]0=250): 240.316
- remaining [B] ([1]; Replicate 3, 723 sec, [B]0=250): 242.314
- remaining [B] ([1]; Replicate 3, 903 sec, [B]0=250): 241.999
- remaining [B] ([1]; Replicate 3, 1084 sec, [B]0=250): 241.659
- remaining [B] ([1]; Replicate 3, 1265 sec, [B]0=250): 241.344
- remaining [B] ([1]; Replicate 3, 1445 sec, [B]0=250): 241.041
- remaining [B] ([1]; Replicate 3, 1626 sec, [B]0=250): 240.789
- remaining [B] ([1]; Replicate 3, 1806 sec, [B]0=250): 240.5
- remaining [B] ([1]; Replicate 3, 1988 sec, [B]0=250): 240.273
- remaining [B] ([1]; Replicate 3, 2168 sec, [B]0=250): 240.008
- remaining [B] ([1]; Replicate 3, 2349 sec, [B]0=250): 239.706
- remaining [B] ([1]; Replicate 3, 2530 sec, [B]0=250): 239.492
- remaining [B] ([1]; Replicate 3, 2710 sec, [B]0=250): 239.164
- remaining [B] [1, 3]: 238.912 and 239.97 and 240.014
- remaining [B] [1, 4]: 238.673 and 239.655 and 239.774
- remaining [B] [1, 5]: 238.37 and 239.391 and 239.522
- remaining [B] [1, 6]: 238.118 and 239.164 and 239.207
- remaining [B] [1, 7]: 237.79
- remaining [A] ([2]; Replicate 1, time 576 sec): 17.5091
- remaining [B] ([2]; Replicate 1, time 576 sec, [B]0 = 250): 163.389
- remaining [A] ([2]; Replicate 1, time 606 sec): 16.6256
- remaining [B] ([2]; Replicate 1, time 606 sec, [B]0 = 250): 162.506
- remaining [A] ([2]; Replicate 2, time 576 sec): 15.4999
- remaining [B] ([2]; Replicate 2, time 576 sec, [B]0=250): 162.358
- remaining [A] ([2]; Replicate 2, time 606 sec): 14.5929
- remaining [B] ([2]; Replicate 2, time 606 sec, [B]0=250): 161.451
- remaining [A] ([2]; Replicate 3, time 576 sec): 17.4849
- remaining [B] ([2]; Replicate 3, time 576 sec, [B]0=250): 162.938
- remaining [A] ([2]; Replicate 3, time 606 sec): 16.538
- remaining [B] ([2]; Replicate 3, time 606 sec, [B]0=250): 161.991
- remaining [B] ([2]; time 0 sec, [B]0 = 250, replicates 1-3): 219.942 and 218.28 and 218.112
- remaining [B] ([2]; time 30 sec, [B]0 = 250, replicates 1-3): 211.555 and 211.839 and 210.232
- remaining [B] ([2]; time 60 sec, [B]0 = 250, replicates 1-3): 204.386 and 206.139 and 202.834
- remaining [B] ([2]; time 91 sec, [B]0 = 250, replicates 1-3): 199.029 and 200.952 and 197.251
- remaining [B] ([2]; time 121 sec, [B]0 = 250, replicates 1-3): 194.402 and 196.363 and 192.97
- remaining [B] ([2]; time 151 sec, [B]0 = 250, replicates 1-3): 190.452 and 192.373 and 188.804
- remaining [B] ([2]; time 182 sec, [B]0 = 250, replicates 1-3): 186.908 and 188.84 and 185.431
- remaining [B] ([2]; time 212 sec, [B]0 = 250, replicates 1-3): 183.932 and 185.762 and 182.511
- remaining [B] ([2]; time 242 sec, [B]0 = 250, replicates 1-3): 181.254 and 182.541 and 179.734
- remaining [B] ([2]; time 273 sec, [B]0 = 250, replicates 1-3): 178.711 and 180.147 and 177.239
- remaining [B] ([2]; time 303 sec, [B]0 = 250, replicates 1-3): 176.384 and 177.582 and 175.227
- remaining [B] ([2]; time 333 sec, [B]0 = 250, replicates 1-3): 174.382 and 175.53 and 173.129
- remaining [B] ([2]; time 364 sec, [B]0 = 250, replicates 1-3): 172.461 and 173.364 and 171.287
- remaining [B] ([2]; time 394 sec, [B]0 = 250, replicates 1-3): 170.756 and 171.54 and 169.7
- remaining [B] ([2]; time 424 sec, [B]0 = 250, replicates 1-3): 169.187 and 169.802 and 168.141
- remaining [B] ([2]; time 454 sec, [B]0 = 250, replicates 1-3): 167.699 and 168.519 and 166.865
- remaining [B] ([2]; time 485 sec, [B]0 = 250, replicates 1-3): 166.401 and 167.208 and 165.59
- remaining [B] ([2]; time 515 sec, [B]0 = 250, replicates 1-3): 165.237 and 165.84 and 164.371
- remaining [B] ([2]; time 545 sec, [B]0 = 250, replicates 1-3): 164.02 and 164.7 and 163.322
Structure (SMILES): COc1cc2sc(C(=O)CCC(=O)O)cc2cc1NC(=O)CCl [Compound E2]
- second-order [1, 3]: 0.0004296 and 0.0004811 and 0.0004316
- second-order [1, 4]: 0.0004407 and 0.0004923 and 0.0004463
- second-order [1, 5]: 0.0004524 and 0.0005067 and 0.0004586
- second-order [1, 6]: 0.0004672 and 0.0005187 and 0.0004692
- second-order [1, 7]: 0.0004772 and 0.0005343 and 0.0004876
- second-order ([1]; Time 3794 sec, [B]0 = 250, Replicates 1-3): 0.0004927 and 0.000547 and 0.0004971
- second-order ([1]; Time 3974 sec, [B]0 = 250, Replicates 1-3): 0.0005034 and 0.0005579 and 0.0005103
- second-order ([1]; Time 4155 sec, [B]0 = 250, Replicates 1-3): 0.0005154 and 0.0005714 and 0.0005211
- second-order ([1]; Time 4336 sec, [B]0 = 250, Replicates 1-3): 0.0005298 and 0.0005836 and 0.0005397
- second-order ([1]; Time 4516 sec, [B]0 = 250, Replicates 1-3): 0.0005443 and 0.0005965 and 0.0005531
- second-order ([1]; Time 4697 sec, [B]0 = 250, Replicates 1-3): 0.0005528 and 0.0006095 and 0.0005659
- second-order ([1]; Time 4878 sec, [B]0 = 250, Replicates 1-3): 0.0005674 and 0.0006188 and 0.0005756
- second-order ([1]; Time 5058 sec, [B]0 = 250, Replicates 1-3): 0.0005809 and 0.0006349 and 0.000586
- second-order ([1]; Time 5239 sec, [B]0 = 250, Replicates 1-3): 0.0005944 and 0.0006468 and 0.0006002
- second-order ([1]; Time 5419 sec, [B]0 = 250, Replicates 1-3): 0.0006061 and 0.0006606 and 0.0006132
- second-order ([1]; Time 5600 sec, [B]0 = 250, Replicates 1-3): 0.0006185 and 0.0006707 and 0.0006275
- second-order ([1]; Time 5781 sec, [B]0 = 250, Replicates 1-3): 0.0006334 and 0.0006852 and 0.0006393
- second-order ([1]; Time 5961 sec, [B]0 = 250, Replicates 1-3): 0.0006459 and 0.0007024 and 0.0006549
- second-order ([2]; Replicate 1, time 576 sec, second-order plot value): 0.009306
- second-order ([2]; Replicate 1, time 606 sec, second-order plot value): 0.009623
- second-order ([2]; Replicate 2, time 576 sec, second-order plot value): 0.009966
- second-order ([2]; Replicate 2, time 606 sec, second-order plot value): 0.01034
- second-order ([2]; Replicate 3, time 576 sec, second-order plot value): 0.009352
- second-order ([2]; Replicate 3, time 606 sec, second-order plot value): 0.009694
- second-order ([2]; time 0 sec, replicates 1-3): 0.001589 and 0.00145 and 0.001561
- second-order ([2]; time 30 sec, replicates 1-3): 0.002137 and 0.002004 and 0.001994
- second-order ([2]; time 60 sec, replicates 1-3): 0.002738 and 0.002556 and 0.002427
- second-order ([2]; time 91 sec, replicates 1-3): 0.003264 and 0.003029 and 0.002869
- second-order ([2]; time 121 sec, replicates 1-3): 0.003719 and 0.003488 and 0.003307
- second-order ([2]; time 151 sec, replicates 1-3): 0.004215 and 0.003925 and 0.003731
- second-order ([2]; time 182 sec, replicates 1-3): 0.004663 and 0.00436 and 0.004145
- second-order ([2]; time 212 sec, replicates 1-3): 0.005091 and 0.004762 and 0.004542
- second-order ([2]; time 242 sec, replicates 1-3): 0.005539 and 0.005157 and 0.005
- second-order ([2]; time 273 sec, replicates 1-3): 0.005981 and 0.005566 and 0.005372
- second-order ([2]; time 303 sec, replicates 1-3): 0.00637 and 0.005975 and 0.005807
- second-order ([2]; time 333 sec, replicates 1-3): 0.006811 and 0.006357 and 0.006186
- second-order ([2]; time 364 sec, replicates 1-3): 0.007233 and 0.006753 and 0.006621
- second-order ([2]; time 394 sec, replicates 1-3): 0.007627 and 0.007133 and 0.007019
- second-order ([2]; time 424 sec, replicates 1-3): 0.008046 and 0.007509 and 0.00743
- second-order ([2]; time 454 sec, replicates 1-3): 0.008415 and 0.007894 and 0.007756
- second-order ([2]; time 485 sec, replicates 1-3): 0.008811 and 0.008254 and 0.008111
- second-order ([2]; time 515 sec, replicates 1-3): 0.009219 and 0.008598 and 0.00851
- second-order ([2]; time 545 sec, replicates 1-3): 0.009596 and 0.008984 and 0.008865
